Results: US11026888B1, “Functional beverage compositions and methods of using and making same” (Nutrition Therapeutics, Inc., priority 2019, dated 2021)

Tests used:
[1] = vigorous mixing with water: miscibility / solubility; type: physicochemical; conditions: mixed vigorously
Excerpt: Over time, the non-polar compounds will aggregate together and fall out of aqueous suspension. […] Beverages manufactured with only polar and non-polar substances would behave and result in a composition having an immiscible and undesirable tactile quality; pomegranate seed oil mixed with water is likely to result in a fatty or oily layer on top of the water, or with CBD, the water surface peppered with crystalline flakes. In most cases, the non-polar components are likely to adhere to the sides of the container.
(§1) For broad-based consumer success, it is desirable that a functional beverage product consistent in flavor, quality, and mouthfeel be manufacturable using an easily replicated process, and be food-safe. Immiscible components can result in material floating on the surface of the beverage, wherein the immiscible materials can shelter can promote the growth of contaminating organisms or provide localized regions survivable from pasteurizing temperatures. Additionally, such immiscible components can become a choking hazard to the unaware consumer. Non-polar compounds mix well with other non-polar compounds.

[2] = dissolving of CBD within pomegranate seed oil; type: physicochemical; conditions: even at refrigeration temperatures
Excerpt: as §1

C=C(C)[C@@H]1CCC(C)=C[C@H]1c1c(O)cc(CCCCC)cc1O [CBD, cannabidiol]
behaviour in water after vigorous mixing [1]: non-dissolving solid | dissolving within pomegranate seed oil [2]: successful dissolving
